# In PubChem BioAssay AID330 (DTP/NCI, 2004):
# Several values for one entry are separate records, joined by “and”; a condition that tells them apart may be missing. Equal entries are not always repeated. Inconclusive results and toxic doses are left out. Square brackets hold non-standard residues; d marks the D form. Peptide text beside a SMILES is read from it. * marks the point of attachment. ξ: configuration not given here. Cbz = O=C(OCc1ccccc1)*; Bn = c1ccc(C*)cc1; ξC = NC(CS)C(=O)O
# Test system: P388 leukemia ip, CD2F1 mice, survival T/C
# Assay: NCI In Vivo Anticancer Drug Screen. Data for tumor model P388 Leukemia (intraperitoneal) in CD2F1 (CDF1) mice
# Conditions: endpoint: median survival time, higher = longer survival
# How it was run: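 Mice carrying the transplanted tumor received test compound or vehicle. Survival was recorded in each group, and the value is the treated-group measurement divided by that of the vehicle-treated control group.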
# [1] = dose: 50.0 mg/kg/injection, schedule: Q01DX005 (ip), vehicle: saline with Tween-80
# [2] = dose: 100.0 mg/kg/injection, schedule: Q01DX005 (ip), vehicle: saline with Tween-80
# [3] = dose: 200.0 mg/kg/injection, schedule: Q01DX005 (ip), vehicle: saline with Tween-80
# [4] = dose: 60.0 mg/kg/injection, schedule: Q01DX005 (ip), vehicle: saline with Tween-80
# [5] = dose: 120.0 mg/kg/injection, schedule: Q01DX005 (ip), vehicle: saline with Tween-80
# [6] = dose: 240.0 mg/kg/injection, schedule: Q01DX005 (ip), vehicle: saline with Tween-80
# [7] = dose: 50.0 mg/kg/injection, schedule: Q01DX009 (ip), vehicle: saline with Tween-80
# [8] = dose: 100.0 mg/kg/injection, schedule: Q01DX009 (ip), vehicle: saline with Tween-80
# [9] = dose: 200.0 mg/kg/injection, schedule: Q01DX009 (ip), vehicle: saline with Tween-80
# [10] = dose: 12.5 mg/kg/injection, schedule: Q04DX003 (ip), vehicle: saline with Tween-80
# [11] = dose: 25.0 mg/kg/injection, schedule: Q04DX003 (ip), vehicle: saline with Tween-80
# [12] = dose: 50.0 mg/kg/injection, schedule: Q01DX009 (ip), vehicle: saline
# [13] = dose: 200.0 mg/kg/injection, schedule: Q04DX003 (ip), vehicle: saline with Tween-80
structure (smiles),measurement,setting,value
CN=C(c1ccc(NC(=O)c2ccc(C(=O)Nc3ccc(C(=NC)N(C)C)cc3)c(Cl)c2)cc1)N(C)C,T/C,"dose: 0.75 mg/kg/injection, schedule: Q01DX005 (ip), vehicle: saline",95 % of control
same,T/C,"dose: 1.5 mg/kg/injection, schedule: Q01DX005 (ip), vehicle: saline",96 % of control
same,T/C,"dose: 3.0 mg/kg/injection, schedule: Q01DX005 (ip), vehicle: saline",92 % of control
same,T/C,"dose: 3.12 mg/kg/injection, schedule: Q01DX005 (ip), vehicle: saline",100 % of control
COc1cccc2c1C(=O)c1c(O)c3c(c(O)c1C2=O)CC(O)(C(C)O)CC3OC1CCN(c2ccccc2)CC(C)O1 (centres undefined),T/C,"dose: 3.13 mg/kg/injection, schedule: Q04DX003 (ip), vehicle: distilled water + Tween-80",103 % of control
same,T/C,"dose: 6.25 mg/kg/injection, schedule: Q04DX003 (ip), vehicle: distilled water + Tween-80",100 % of control
same,T/C,"dose: 12.5 mg/kg/injection, schedule: Q04DX003 (ip), vehicle: distilled water + Tween-80",108 % of control
same,T/C,"dose: 25.0 mg/kg/injection, schedule: Q04DX003 (ip), vehicle: distilled water + Tween-80",105 % of control
same,T/C,"dose: 50.0 mg/kg/injection, schedule: Q04DX003 (ip), vehicle: distilled water + Tween-80",104 % of control
same,T/C,"dose: 100.0 mg/kg/injection, schedule: Q04DX003 (ip), vehicle: distilled water + Tween-80",105 % of control
same,T/C,"dose: 200.0 mg/kg/injection, schedule: Q04DX003 (ip), vehicle: distilled water + Tween-80",124 % of control
same,T/C,"dose: 400.0 mg/kg/injection, schedule: Q04DX003 (ip), vehicle: distilled water + Tween-80",101 % of control
O=C(CNC(=O)OCc1ccccc1)NCC(=O)NC(CSCc1ccccc1)C(=O)O (stereo not drawn) (Cbz-Gly-Gly-[ξC](Bn)-OH),T/C,"dose: 50.0 mg/kg/injection, schedule: Q01DX005 (ip), vehicle: Klucel (hydroxypropylcellulose) (HPC)",101 % of control
same,T/C,"dose: 100.0 mg/kg/injection, schedule: Q01DX005 (ip), vehicle: Klucel (hydroxypropylcellulose) (HPC)",100 % of control
same,T/C,"dose: 200.0 mg/kg/injection, schedule: Q01DX005 (ip), vehicle: Klucel (hydroxypropylcellulose) (HPC)",100 % of control
N#Cc1c(C(=O)NN)c2c(-c3ccccc3)n[nH]c(=O)c2[nH]c1=O,T/C,"dose: 100.0 mg/kg/injection, schedule: Q01DX001 (ip), vehicle: saline with Tween-80",100 % of control
same,T/C,"dose: 200.0 mg/kg/injection, schedule: Q01DX001 (ip), vehicle: saline with Tween-80",91 % of control
C=CCC(CC)C(=O)Cl (centres undefined),T/C,"dose: 75.0 mg/kg/injection, schedule: Q01DX009 (ip), vehicle: saline with Tween-80",93 % of control
same,T/C,"dose: 150.0 mg/kg/injection, schedule: Q01DX009 (ip), vehicle: saline with Tween-80",92 % of control
same,T/C,"dose: 300.0 mg/kg/injection, schedule: Q01DX009 (ip), vehicle: saline with Tween-80",111 % of control
O=C1NCCCCCC1S(=O)c1ccccc1 (centres undefined),T/C,[1],103 % of control
same,T/C,[2],96 % of control
same,T/C,[3],101 % of control
O=[N+]([O-])c1ccc(/C=C/C(CCN2CCOCC2)=N/O)cc1,T/C,[4],104 % of control
same,T/C,[5],99 % of control
same,T/C,[6],103 % of control
OC1c2ccccc2-c2cccc(N=Cc3ccc4c(c3)OCO4)c21 (centres undefined),T/C,[4],108 % of control
same,T/C,[5],97 % of control
same,T/C,[6],95 % of control
N#Cc1cc(C23CCC(C2)N3)ccc1[N+](=O)[O-] (centres undefined),T/C,"dose: 100.0 mg/kg/injection, schedule: Q04DX003 (ip), vehicle: saline",105 % of control
same,T/C,"dose: 200.0 mg/kg/injection, schedule: Q04DX003 (ip), vehicle: saline",91 % of control
same,T/C,"dose: 400.0 mg/kg/injection, schedule: Q04DX003 (ip), vehicle: saline",92 % of control
NC(=O)N=Nc1ccc(Cl)c(Cl)c1,T/C,[1],100 % of control
same,T/C,[2],102 % of control
same,T/C,[3],102 % of control
COc1c2c(cc3c1-c1ccc(OC)c(=O)cc1C(NC(C)=O)CC3)OCO2 (centres undefined),T/C,"dose: 0.47 mg/kg/injection, schedule: Q01DX009 (ip), vehicle: distilled water + Tween-80",157 % of control
same,T/C,"dose: 0.94 mg/kg/injection, schedule: Q01DX009 (ip), vehicle: distilled water + Tween-80",166 % of control
same,T/C,"dose: 3.75 mg/kg/injection, schedule: Q01DX009 (ip), vehicle: distilled water + Tween-80",155 % of control
same,T/C,"dose: 7.5 mg/kg/injection, schedule: Q01DX009 (ip), vehicle: distilled water + Tween-80",161 % of control
CN(C)c1ccc(/C=N/NC(=O)C(=O)NCc2ccco2)cc1,T/C,[7],94 % of control
same,T/C,[8],86 % of control
same,T/C,[9],91 % of control
CCCCCCCCCC1(O)OC(=O)C(C)=C1C (centres undefined),T/C,[10],115 % of control
same,T/C,[11],100 % of control
same,T/C,"dose: 50.0 mg/kg/injection, schedule: Q04DX003 (ip), vehicle: saline with Tween-80",102 % of control
CCOC(=O)c1c[nH]c2ccc(N(CCO)CCO)cc12,T/C,[1],102 % of control
same,T/C,[2],105 % of control
same,T/C,[3],108 % of control
C(=C\c1ccco1)/c1ccnnc1,T/C,"dose: 12.5 mg/kg/injection, schedule: Q01DX009 (ip), vehicle: saline",97 % of control
same,T/C,"dose: 25.0 mg/kg/injection, schedule: Q01DX009 (ip), vehicle: saline",109 % of control
same,T/C,[12],108 % of control and 97 % of control
Cc1ncc(CO)c(C2NC(C(=O)O)CS2)c1O (centres undefined),T/C,[4],98 % of control
same,T/C,[5],98 % of control
same,T/C,[6],100 % of control
COc1nc2n[nH]nc2c(=O)n1C,T/C,[4],104 % of control
same,T/C,[5],102 % of control
same,T/C,[6],101 % of control
CCN(CC)CC(C)Nc1ccc([N+](=O)[O-])c2sc3ccccc3c(=O)c12 (centres undefined),T/C,"dose: 6.25 mg/kg/injection, schedule: Q01DX009 (ip), vehicle: saline",113 % of control
same,T/C,[10],115 % of control
same,T/C,[11],120 % of control
same,T/C,[7],172 % of control
same,T/C,[12],186 % of control
same,T/C,"dose: 132.0 mg/kg/injection, schedule: Q04DX003 (ip), vehicle: saline with Tween-80",163 % of control
same,T/C,[13],154 % of control
CCn1c2ccccc2c2cc(NC(=S)NC(=O)c3cccs3)ccc21,T/C,"dose: 6.25 mg/kg/injection, schedule: Q01DX005 (ip), vehicle: saline with Tween-80",93 % of control
same,T/C,"dose: 12.5 mg/kg/injection, schedule: Q01DX005 (ip), vehicle: saline with Tween-80",86 % of control
same,T/C,"dose: 25.0 mg/kg/injection, schedule: Q01DX005 (ip), vehicle: saline with Tween-80",93 % of control
same,T/C,[2],90 % of control
same,T/C,[3],92 % of control
COc1ccc(Br)cc1/C=N/N=C/c1cc(Br)ccc1OC,T/C,"dose: 100.0 mg/kg/injection, schedule: Q04DX003 (ip), vehicle: saline with Tween-80",90 % of control
same,T/C,[13],86 % of control
same,T/C,"dose: 400.0 mg/kg/injection, schedule: Q04DX003 (ip), vehicle: saline with Tween-80",86 % of control
O=NN(CCCl)C(=O)NCCO,T/C,"dose: 0.78 mg/kg/injection, schedule: Q01DX005 (ip), vehicle: water",96 % of control
same,T/C,"dose: 3.12 mg/kg/injection, schedule: Q01DX005 (ip), vehicle: water",104 % of control
same,T/C,"dose: 3.13 mg/kg/injection, schedule: Q01DX005 (ip), vehicle: water",250 % of control
same,T/C,"dose: 12.5 mg/kg/injection, schedule: Q01DX005 (ip), vehicle: water",116 % of control
same,T/C,"dose: 25.0 mg/kg/injection, schedule: Q01DX005 (ip), vehicle: water",150 % of control
same,T/C,"dose: 50.0 mg/kg/injection, schedule: Q01DX005 (ip), vehicle: water",218 % of control
CC1CC(O)C(CN(C)C)C(C)(C)C1 (centres undefined),T/C,[1],106 % of control
same,T/C,[2],100 % of control
CC(C)(C)OC(=O)NC(Cc1c[nH]c2ccccc12)C(=O)ON1C(=O)CCC1=O (centres undefined),T/C,"dose: 25.0 mg/kg/injection, schedule: Q01DX009 (ip), vehicle: saline with Tween-80",97 % of control
same,T/C,[7],108 % of control
same,T/C,[8],110 % of control
same,T/C,[9],105 % of control
CCN(Cc1c(C)nc2ccc(N(C)C)cc2c1Cl)CN(CC)Cc1c(C)nc2ccc(N(C)C)cc2c1Cl,T/C,"dose: 100.0 mg/kg/injection, schedule: Q01DX002 (ip), vehicle: saline with Tween-80",100 % of control
same,T/C,"dose: 200.0 mg/kg/injection, schedule: Q01DX002 (ip), vehicle: saline with Tween-80",94 % of control
same,T/C,"dose: 400.0 mg/kg/injection, schedule: Q01DX002 (ip), vehicle: saline with Tween-80",98 % of control
COc1ccc(Cc2nnc(C)c3c(C)[nH]nc23)cc1OC,T/C,"dose: 50.0 mg/kg/injection, schedule: Q01DX009 (ip), vehicle: Klucel (hydroxypropylcellulose) (HPC)",92 % of control
same,T/C,"dose: 100.0 mg/kg/injection, schedule: Q01DX009 (ip), vehicle: Klucel (hydroxypropylcellulose) (HPC)",92 % of control
